Data taken from the supplement of paper PMC10307832.

Tests used:
Test in all cases: relative viability (nuclei count vs DMSO), 5 days (fraction); higher = more cells survive
Shikonin + Luminespib = compound: CC(C)=CC[C@@H](O)C1=CC(=O)c2c(O)ccc(O)c2C1=O [Shikonin] + CCNC(=O)c1noc(-c2cc(C(C)C)c(O)cc2O)c1-c1ccc(CN2CCOCC2)cc1 [Luminespib] (partner 0.01 µM)
Method in brief: (§1)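 Medians of duplicate plates are given as relative viability. That measure is the nuclei count in treated wells divided by the count in vehicle wells. Counts were taken on 4× images of lung cancer cell lines in 1536-well plates, 5 days after pin-tool dosing the day after seeding with one drug alone or a fixed anchor-drug dose plus five library-drug doses (not always all listed) in √10 steps.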

Shikonin + Pictilisib = compound: CC(C)=CC[C@@H](O)C1=CC(=O)c2c(O)ccc(O)c2C1=O [Shikonin] + CS(=O)(=O)N1CCN(Cc2cc3nc(-c4cccc5[nH]ncc45)nc(N4CCOCC4)c3s2)CC1 [Pictilisib] (partner 1 µM)
Method in brief: as §1

[1] = compound: CC(C)N(CCCNC(=O)Nc1ccc(C(C)(C)C)cc1)C[C@H]1O[C@@H](n2ccc3c(N)ncnc32)[C@H](O)[C@@H]1O + COc1cccc2cc(-c3nc([C@H]4CC[C@H](C(=O)O)CC4)n4ncnc(N)c34)[nH]c12 [OSI-027] (partner 0.5 µM)
Method in brief: as §1

[2] = compound: CC(C)N(CCCNC(=O)Nc1ccc(C(C)(C)C)cc1)C[C@H]1O[C@@H](n2ccc3c(N)ncnc32)[C@H](O)[C@@H]1O + NC(=O)Nc1cc(-c2cccc(F)c2)sc1C(=O)N[C@H]1CCCNC1 [AZD7762] (partner 0.2 µM)
Method in brief: as §1

For NCI-H1563, the relative viability (Shikonin + Luminespib; first compound 0.01 µM) was 0.575, the relative viability (Shikonin + Luminespib; first compound 0.1 µM) was 0.465 and the relative viability (Shikonin + Luminespib; first compound 0.3162 µM) was 0.542. For the same cell line, the relative viability (Shikonin + Luminespib; first compound 1 µM) was 0.453, the relative viability (Shikonin + Pictilisib; first compound 0.01 µM) was 0.629 and the relative viability (Shikonin + Pictilisib; first compound 0.1 µM) was 0.719. The relative viability (Shikonin + Pictilisib; first compound 0.3162 µM) was 0.675, the relative viability (Shikonin + Pictilisib; first compound 1 µM) was 0.566 and the relative viability ([1]; first compound 0.08 µM) was 0.742. The relative viability ([1]; first compound 0.253 µM) was 0.782, the relative viability ([1]; first compound 0.8 µM) was 0.73 and the relative viability ([1]; first compound 2.53 µM) was 0.713. For the same cell line, the relative viability ([1]; first compound 8 µM) was 0.799.

Cell Line NCI-H1623 has a relative viability (Shikonin + Luminespib; first compound 0.01 µM) of 0.513, a relative viability (Shikonin + Luminespib; first compound 0.1 µM) of 0.552 and a relative viability (Shikonin + Luminespib; first compound 0.3162 µM) of 0.609. For the same cell line, the relative viability (Shikonin + Luminespib; first compound 1 µM) was 0.368, the relative viability ([1]; first compound 0.08 µM) was 0.446 and the relative viability ([1]; first compound 0.253 µM) was 0.469. The relative viability ([1]; first compound 0.8 µM) was 0.529, the relative viability ([1]; first compound 2.53 µM) was 0.422 and the relative viability ([1]; first compound 8 µM) was 0.437.

NCI-H1648 gave a relative viability ([1]; first compound 0.08 µM) of 0.277, a relative viability ([1]; first compound 0.253 µM) of 0.258 and a relative viability ([1]; first compound 0.8 µM) of 0.247. It also gave a relative viability ([1]; first compound 2.53 µM) of 0.247, a relative viability ([1]; first compound 8 µM) of 0.293 and a relative viability ([2]; first compound 0.08 µM) of 0.656. It also gave a relative viability ([2]; first compound 0.253 µM) of 0.812, a relative viability ([2]; first compound 0.8 µM) of 0.525 and a relative viability ([2]; first compound 2.53 µM) of 0.645. The relative viability ([2]; first compound 8 µM) was 0.707.

For NCI-H1650, the relative viability (Shikonin + Luminespib; first compound 0.01 µM) was 0.195, the relative viability (Shikonin + Luminespib; first compound 0.1 µM) was 0.198 and the relative viability (Shikonin + Luminespib; first compound 0.3162 µM) was 0.175. It also gave a relative viability (Shikonin + Luminespib; first compound 1 µM) of 0.193, a relative viability (Shikonin + Pictilisib; first compound 0.01 µM) of 0.682 and a relative viability (Shikonin + Pictilisib; first compound 0.1 µM) of 0.684. The relative viability (Shikonin + Pictilisib; first compound 0.3162 µM) was 0.481, the relative viability (Shikonin + Pictilisib; first compound 1 µM) was 0.571 and the relative viability ([1]; first compound 0.08 µM) was 0.567. It also gave a relative viability ([1]; first compound 0.253 µM) of 0.696, a relative viability ([1]; first compound 2.53 µM) of 0.744 and a relative viability ([1]; first compound 8 µM) of 0.703.

With NCI-H1703 the relative viability (Shikonin + Pictilisib; first compound 0.01 µM) was 0.26, the relative viability (Shikonin + Pictilisib; first compound 0.1 µM) was 0.238 and the relative viability (Shikonin + Pictilisib; first compound 0.3162 µM) was 0.206. For the same cell line, the relative viability (Shikonin + Pictilisib; first compound 1 µM) was 0.205, the relative viability ([2]; first compound 0.08 µM) was 0.145 and the relative viability ([2]; first compound 0.8 µM) was 0.137. For the same cell line, the relative viability ([2]; first compound 2.53 µM) was 0.105 and the relative viability ([2]; first compound 8 µM) was 0.114.

Cell Line NCI-H2009 has a relative viability (Shikonin + Luminespib; first compound 0.01 µM) of 1.1, a relative viability (Shikonin + Luminespib; first compound 0.1 µM) of 1.16 and a relative viability (Shikonin + Luminespib; first compound 0.3162 µM) of 1. The relative viability (Shikonin + Luminespib; first compound 1 µM) was 0.876, the relative viability (Shikonin + Pictilisib; first compound 0.01 µM) was 0.817 and the relative viability (Shikonin + Pictilisib; first compound 0.1 µM) was 1.13. For the same cell line, the relative viability (Shikonin + Pictilisib; first compound 0.3162 µM) was 0.671, the relative viability (Shikonin + Pictilisib; first compound 1 µM) was 0.187 and the relative viability ([1]; first compound 0.08 µM) was 0.641. The relative viability ([1]; first compound 0.253 µM) was 0.722, the relative viability ([1]; first compound 0.8 µM) was 0.702 and the relative viability ([1]; first compound 2.53 µM) was 0.599. It also gave a relative viability ([1]; first compound 8 µM) of 0.587.

With NCI-H2023 the relative viability (Shikonin + Luminespib; first compound 0.01 µM) was 0.969, the relative viability (Shikonin + Luminespib; first compound 0.1 µM) was 0.851 and the relative viability (Shikonin + Luminespib; first compound 0.3162 µM) was 0.982. It also gave a relative viability (Shikonin + Luminespib; first compound 1 µM) of 0.59, a relative viability (Shikonin + Pictilisib; first compound 0.01 µM) of 0.225 and a relative viability (Shikonin + Pictilisib; first compound 0.1 µM) of 0.31. It also gave a relative viability (Shikonin + Pictilisib; first compound 0.3162 µM) of 0.223, a relative viability (Shikonin + Pictilisib; first compound 1 µM) of 0.257 and a relative viability ([1]; first compound 0.08 µM) of 0.375. For the same cell line, the relative viability ([1]; first compound 0.253 µM) was 0.501, the relative viability ([1]; first compound 0.8 µM) was 0.414 and the relative viability ([1]; first compound 2.53 µM) was 0.392. For the same cell line, the relative viability ([1]; first compound 8 µM) was 0.353.

In the case of NCI-H2228, the relative viability (Shikonin + Luminespib; first compound 0.01 µM) is reported as 0.153, the relative viability (Shikonin + Luminespib; first compound 0.1 µM) is reported as 0.177 and the relative viability (Shikonin + Luminespib; first compound 0.3162 µM) is reported as 0.146. For the same cell line, the relative viability (Shikonin + Luminespib; first compound 1 µM) was 0.163, the relative viability (Shikonin + Pictilisib; first compound 0.01 µM) was 0.344 and the relative viability (Shikonin + Pictilisib; first compound 0.1 µM) was 0.438. It also gave a relative viability (Shikonin + Pictilisib; first compound 0.3162 µM) of 0.465, a relative viability (Shikonin + Pictilisib; first compound 1 µM) of 0.252 and a relative viability ([1]; first compound 0.08 µM) of 0.614. The relative viability ([1]; first compound 0.253 µM) was 0.632, the relative viability ([1]; first compound 0.8 µM) was 0.526 and the relative viability ([1]; first compound 2.53 µM) was 0.623. The relative viability ([1]; first compound 8 µM) was 0.78.

For NCI-H2342, the relative viability (Shikonin + Luminespib; first compound 0.01 µM) was 0.763, the relative viability (Shikonin + Luminespib; first compound 0.1 µM) was 0.65 and the relative viability (Shikonin + Luminespib; first compound 0.3162 µM) was 0.752. The relative viability (Shikonin + Luminespib; first compound 1 µM) was 0.702, the relative viability ([1]; first compound 0.08 µM) was 0.736 and the relative viability ([1]; first compound 0.253 µM) was 0.643. For the same cell line, the relative viability ([1]; first compound 0.8 µM) was 0.611, the relative viability ([1]; first compound 2.53 µM) was 0.61 and the relative viability ([1]; first compound 8 µM) was 0.607. For the same cell line, the relative viability ([2]; first compound 0.08 µM) was 0.454, the relative viability ([2]; first compound 0.253 µM) was 0.535 and the relative viability ([2]; first compound 0.8 µM) was 0.455. It also gave a relative viability ([2]; first compound 2.53 µM) of 0.505 and a relative viability ([2]; first compound 8 µM) of 0.397.

SK-LU-1 gave a relative viability (Shikonin + Luminespib; first compound 0.01 µM) of 0.212, a relative viability (Shikonin + Luminespib; first compound 0.1 µM) of 0.215 and a relative viability (Shikonin + Luminespib; first compound 0.3162 µM) of 0.198. It also gave a relative viability (Shikonin + Luminespib; first compound 1 µM) of 0.187, a relative viability (Shikonin + Pictilisib; first compound 0.01 µM) of 0.511 and a relative viability (Shikonin + Pictilisib; first compound 0.1 µM) of 0.541. The relative viability (Shikonin + Pictilisib; first compound 0.3162 µM) was 0.442, the relative viability (Shikonin + Pictilisib; first compound 1 µM) was 0.616 and the relative viability ([1]; first compound 0.08 µM) was 0.372. For the same cell line, the relative viability ([1]; first compound 0.253 µM) was 0.424, the relative viability ([1]; first compound 0.8 µM) was 0.352 and the relative viability ([1]; first compound 2.53 µM) was 0.405. The relative viability ([1]; first compound 8 µM) was 0.338.

SK-MES-1 showed a relative viability (Shikonin + Luminespib; first compound 0.01 µM) of 0.969, a relative viability (Shikonin + Luminespib; first compound 0.1 µM) of 0.677 and a relative viability (Shikonin + Luminespib; first compound 0.3162 µM) of 0.833. The relative viability (Shikonin + Luminespib; first compound 1 µM) was 0.698, the relative viability (Shikonin + Pictilisib; first compound 0.01 µM) was 0.352 and the relative viability (Shikonin + Pictilisib; first compound 0.1 µM) was 0.392. For the same cell line, the relative viability (Shikonin + Pictilisib; first compound 0.3162 µM) was 0.413, the relative viability (Shikonin + Pictilisib; first compound 1 µM) was 0.368 and the relative viability ([1]; first compound 0.08 µM) was 0.615. The relative viability ([1]; first compound 0.253 µM) was 0.685, the relative viability ([1]; first compound 0.8 µM) was 0.586 and the relative viability ([1]; first compound 2.53 µM) was 0.619. For the same cell line, the relative viability ([1]; first compound 8 µM) was 0.586.

In the case of SW 900, the relative viability (Shikonin + Luminespib; first compound 0.01 µM) is reported as 0.192, the relative viability (Shikonin + Luminespib; first compound 0.1 µM) is reported as 0.173 and the relative viability (Shikonin + Luminespib; first compound 0.3162 µM) is reported as 0.207. For the same cell line, the relative viability (Shikonin + Luminespib; first compound 1 µM) was 0.155, the relative viability ([1]; first compound 0.08 µM) was 0.482 and the relative viability ([1]; first compound 0.253 µM) was 0.569. It also gave a relative viability ([1]; first compound 2.53 µM) of 0.691, a relative viability ([1]; first compound 8 µM) of 0.512 and a relative viability ([2]; first compound 0.08 µM) of 0.718. It also gave a relative viability ([2]; first compound 0.253 µM) of 0.529, a relative viability ([2]; first compound 2.53 µM) of 0.564 and a relative viability ([2]; first compound 8 µM) of 0.554.

Cell Line SW 1573 has a relative viability (Shikonin + Luminespib; first compound 0.01 µM) of 0.494, a relative viability (Shikonin + Luminespib; first compound 0.1 µM) of 0.201 and a relative viability (Shikonin + Luminespib; first compound 0.3162 µM) of 0.232. The relative viability (Shikonin + Luminespib; first compound 1 µM) was 0.0929, the relative viability (Shikonin + Pictilisib; first compound 0.01 µM) was 0.616 and the relative viability (Shikonin + Pictilisib; first compound 0.1 µM) was 0.604. For the same cell line, the relative viability (Shikonin + Pictilisib; first compound 0.3162 µM) was 0.558, the relative viability (Shikonin + Pictilisib; first compound 1 µM) was 0.532 and the relative viability ([1]; first compound 0.08 µM) was 0.501. For the same cell line, the relative viability ([1]; first compound 0.253 µM) was 0.679, the relative viability ([1]; first compound 0.8 µM) was 0.635 and the relative viability ([1]; first compound 2.53 µM) was 0.683. It also gave a relative viability ([1]; first compound 8 µM) of 0.705.
